Test system: interleukin-1β production
Test: Inhibitory activity against interleukin-1β production (LPS-stimulated HL-60 cells, ELISA)
Format: cell-based
Settings: Homo sapiens, 72 h, lipopolysaccharide 10 μg/ml, culturing for 3 days, interleukin-1β determined by ELISA, read-out: IL-β (IC50 μM)
Experimental: Experiment 1 (Inhibitory Activity against Interleukin-1β Production)
Inhibitory activity of the compounds of the present invention, which are represented by the formula (I), against interleukin-1β production was tested by the following experiment:
HL-60 cells were cultured for 4 days until confluence on RPMI 1640 medium with 10% fetal bovine serum (FBS) added thereto. The medium was centrifuged. The supernatant was discarded, and the cells were then suspended at 1×10^6 cells/ml on RPMI 1640 medium with 3% FBS, and lipopolysaccharide was added to give a final concentration of 10 μg/ml . The culture was inoculated at 1 ml/well to a 24-well plate. A test compound was added at 1 μl/well, followed by culturing for 3 days. Three days later, the amount of interleukin-1β in each culture was determined by ELISA. Each IC50 value was determined by a comparison in yield with a control to which no test compound was added.

Row | IC50 [µM] | Structure (SMILES)
1 | 0.04 | COc1ccc(-c2cc(Oc3c(F)c(F)c(F)c(F)c3F)nnc2-c2ccc(OC)cc2)cc1 [Example 12, 3,4-bis(4-methoxyphenyl)-6(2,3,4,5,6-pentafluorophenoxy)pyridazine]
2 | 0.1 | COc1ccc(-c2cc(Oc3ccccc3)nnc2-c2ccc(OC)cc2)cc1 [Example 3, 3,4-bis(4-methoxyphenyl)-6-(phenoxy)pyridazine]
3 | 0.19 | COc1ccc(-c2cc(Oc3c(F)c(F)cc(F)c3F)nnc2-c2ccc(OC)cc2)cc1 [Example 11, 3,4-bis(4-methoxyphenyl)-6-(2,3,5,6-tetrafluorophenoxy)pyridazine]
4 | 0.32 | COc1ccc(-c2nnc(Oc3cccc(F)c3F)cc2-c2ccccc2)cc1 [Example 25, 6-(2,3-difluorophenoxy)-3-(4-methoxyphenyl)-4-phenylpyridazine]
5 | 0.63 | COc1ccc(-c2cc(Oc3ccc([N+](=O)[O-])cc3)nnc2-c2ccc(OC)cc2)cc1 [Example 17, 3,4-bis(4-methoxyphenyl)-6-(4-nitrophenoxy)pyridazine]
6 | 0.15 | COc1ccc(-c2cc(Oc3ccccc3C#N)nnc2-c2ccc(OC)cc2)cc1 [Example 18, 3,4-bis(4-methoxyphenyl)-6-(2-cyanophenoxy)pyridazine]
7 | 0.01 | COc1ccc(-c2nnc(Oc3c(F)c(F)c(F)c(F)c3F)cc2-c2ccccc2)cc1 [Example 27, 3-(4-methoxyphenyl)-6-(2,3,4,5,6-pentafluorophenoxy)-4-phenylpyridazine]
8 | 0.46 | COc1ccc(-c2cc(Oc3ccc(F)c(F)c3)nnc2-c2ccc(OC)cc2)cc1 [Example 9, 3,4-bis(4-methoxyphenyl)-6-(3,4-difluorophenoxy)pyridazine]
9 | 0.16 | COc1ccc(-c2cc(Oc3cccc(C#N)c3)nnc2-c2ccc(OC)cc2)cc1 [Example 19, 3,4-bis(4-methoxyphenyl)-6-(3-cyanophenoxy)pyridazine]
10 | 0.2 | COc1ccc(-c2cc(Sc3cc(Cl)c(Cl)c(Cl)c3)nnc2-c2ccc(OC)cc2)cc1 [Example 14, 3,4-bis(4-methoxyphenyl)-6-(3,4,5-trichlorophenylthio)pyridazine]
11 | 0.09 | COc1ccc(-c2cc(C#N)nnc2-c2ccc(OC)cc2)cc1 [Example 51, 3,4-bis-(4-methoxyphenyl)-6-cyanopyridazine]
12 | 0.12 | COc1ccc(-c2cc(Oc3cccc(F)c3F)nnc2-c2ccc(OC)cc2)cc1 [Example 5, 3,4-bis(4-methoxyphenyl)-6-(2,3-difluorophenoxy)pyridazine]
13 | 0.45 | COc1ccc(Oc2cc(-c3ccc(OC)cc3)c(-c3ccc(OC)cc3)nn2)cc1 [Example 15, 3,4-bis(4-methoxyphenyl)-6-(4-methoxyphenoxy)pyridazine]
14 | 32.1 | COc1ccc(-c2cc(Cl)nnc2-c2ccc(OC)cc2)cc1 [Comp. Comp'd 1, reference compound]
15 | 0.31 | COc1ccc(-c2nnc(Oc3ccc(F)cc3F)cc2-c2ccccc2)cc1 [Example 26, 6-(2,4-difluorophenoxy)-3-(4-methoxyphenyl)-4-phenylpyridazine]
16 | 4.16 | CCOC(=O)c1c(Cl)nnc(-c2ccc(OC)cc2)c1-c1ccc(OC)cc1 [Comp. Comp'd 2, reference compound]
17 | 0.18 | COc1ccc(-c2cc(Oc3cc(F)ccc3F)nnc2-c2ccc(OC)cc2)cc1 [Example 7, 3,4-bis(4-methoxyphenyl)-6-(2,5-difluorophenoxy)pyridazine]
18 | 0.96 | COc1ccc(-c2nnc(Oc3ccc(F)cc3F)cc2-c2ccncc2)cc1 [Example 23, 6-(2,4-difluorophenoxy)-3-(4-methoxyphenyl)-4-(4-pyridyl)pyridazine]
19 | 0.68 | COc1ccc(-c2nnc(C#N)cc2-c2ccccc2)cc1 [Example 66, 6-cyano-3-(4-methoxyphenyl)-4-phenylpyridazine]
20 | 0.35 | COc1ccc(-c2cc(Oc3c(F)cccc3F)nnc2-c2ccc(OC)cc2)cc1 [Example 8, 3,4-bis(4-methoxyphenyl)-6-(2,6-difluorophenoxy)pyridazine]
21 | 0.94 | CSc1ccc(-c2nnc(Sc3ccccc3)cc2-c2ccc(Sc3ccccc3)cc2)cc1 [Example 32, 3-[4-(methylthio)phenyl]-6-phenylthio-4-[4-(phenylthio)phenyl]pyridazine]
22 | 0.26 | CSc1ccc(-c2nnc(Oc3ccc(F)cc3F)cc2-c2ccc(Cl)cc2)cc1 [Example 33, 4-(4-chlorophenyl)-6-(2,4-difluorophenoxy)-3-[4-(methylthio)phenyl]pyridazine]

Test system: not given
Test: not given
Settings: not given

Row | melting point [°C] | Structure (SMILES)
23 | 130.9 to 131.4 | CSc1ccc(-c2nnc(Cl)cc2-c2ccc(F)cc2)cc1 [Example 28, 6-chloro-4-(4-fluorophenyl)-3-[4-(methylthio)phenyl]pyridazine]
24 | 125.4 to 126.3 | COc1ccc(-c2cc(NCc3ccccc3)nnc2-c2ccc(OC)cc2)cc1 [Example 41, 6-benzylamino-3,4-bis(4-methoxyphenyl)pyridazine]
25 | 115.2 to 117.3 | CS(=O)(=O)c1ccc(-c2nnc(Oc3ccc(F)cc3F)cc2-c2ccc(Cl)cc2)cc1 [Example 34, 4-(4-chlorophenyl)-6-(2,4-difluorophenoxy)-3-[4-(methylsulfonyl)phenyl]pyridazine]
26 | 155.2 to 156.6 | COc1ccc(-c2nnc(Oc3cccc(F)c3F)cc2-c2ccccc2)cc1 [Example 25, 6-(2,3-difluorophenoxy)-3-(4-methoxyphenyl)-4-phenylpyridazine]
27 | 157.7 to 158.3 | CSc1ccc(-c2nnc(Cl)cc2-c2ccccc2)cc1 [Example 59, 6-chloro-3-[4-(methylthio)phenyl]-4-phenylpyridazine]
28 | 140.6 to 143.4 | CSc1ccc(-c2nnc(Oc3ccc(F)cc3F)cc2-c2ccc(F)cc2)cc1 [Example 29, 6-(2,4-difluorophenoxy)-4-(4-fluorophenyl)-3-[4-(methylthio)phenyl]pyridazine]
29 | 205 to 209 | Cc1cc(-c2ccc(Cl)cc2)c(-c2ccc(S(C)(=O)=O)cc2)nn1 [Example 50, 4-(4-chlorophenyl)-6-methyl-3-[4-(methylsulfonyl)phenyl]pyridazine]
30 | 145 to 145.8 | CSc1ccc(-c2nnc(Cl)cc2-c2ccc(Cl)cc2)cc1 [Example 31, 6-chloro-4-(4-chlorophenyl)-3-[4-(methylthio)phenyl]pyridazine]
31 | 189.6 to 190.5 | CS(=O)(=O)c1ccc(-c2nnc(Cl)cc2-c2ccc(Cl)cc2)cc1 [Example 60, 6-chloro-4-(4-chlorophenyl)-3-[4-(methylsulfonyl)phenyl]pyridazine]
32 | 169 to 169.9 | COc1ccc(-c2nnc(Oc3ccc(F)cc3F)cc2-c2ccccc2)cc1 [Example 26, 6-(2,4-difluorophenoxy)-3-(4-methoxyphenyl)-4-phenylpyridazine]
33 | 165.8 to 169.5 | CSc1ccc(-c2nnc(SC)cc2-c2ccc(F)cc2)cc1 [Example 46, 4-(4-fluorophenyl)-6-methylthio-3-[4-(methylthio)phenyl]pyridazine]
34 | 53.3 to 56.2 | CSc1ccc(-c2nnc(Sc3ccccc3)cc2-c2ccc(Sc3ccccc3)cc2)cc1 [Example 32, 3-[4-(methylthio)phenyl]-6-phenylthio-4-[4-(phenylthio)phenyl]pyridazine]
35 | 163.2 to 164 | CSc1ccc(-c2nnc(Oc3ccc(F)cc3F)cc2-c2ccc(Cl)cc2)cc1 [Example 33, 4-(4-chlorophenyl)-6-(2,4-difluorophenoxy)-3-[4-(methylthio)phenyl]pyridazine]

From US6664256B1, “Phenylpyridazine compounds and medicines containing the same” (Kowa Co., Ltd., priority 2000, dated 2003)
